Measured values as given in patent publication US9512128B2 (BAYER CROPSCIENCE AG, priority 2012, dated 2016).
Read-outs that look alike come from different tables or passages of the source. Each block holds one compound with its values, some of them ahead of it.

Experiment: log P by HPLC on reversed-phase columns (C 18), EEC directive 79/831 Annex V.A8
Format: physicochemical
Details: for logP[a]: method [a]; for logP[b]: method [b]
Protocol: The log P values were determined according to EEC directive 79/831 Annex V.A8 by HPLC (High Performance Liquid Chromatography) on reversed-phase columns (C 18), using the methods below:
[a] The LC-MS determination in the acidic range is carried out at pH 2.7 with 0.1% aqueous formic acid and acetonitrile (contains 0.1% formic acid) as mobile phases; linear gradient from 10% acetonitrile to 95% acetonitrile.
[b] The LC-MS determination in the neutral range is carried out at pH 7.8 using the mobile phases 0.001 molar aqueous ammonium bicarbonate solution and acetonitrile; linear gradient from 10% acetonitrile to 95% acetonitrile.

[1] = acidic range, pH 2.7, 0.1% aqueous formic acid / acetonitrile, read-out: log P[a]
[2] = neutral range, pH 7.8, 0.001 molar aqueous ammonium bicarbonate / acetonitrile, read-out: log P[b]
[3] = reversed-phase C18 HPLC column, pH 2.7, acidic range, pH 2.7, 0.1% aqueous formic acid / acetonitrile, read-out: log P[a]
[4] = reversed-phase C18 HPLC column, pH 2.7, method [a], read-out: logP[a]
[5] = reversed-phase C18 HPLC column, pH 7.8, method [b], read-out: logP[b]
[6] = reversed-phase C18 HPLC column, pH 7.8, neutral range, pH 7.8, 0.001 molar aqueous ammonium bicarbonate / acetonitrile, read-out: log P[b]

Compound: O=c1c2ncsc2ncn1-c1cc([S+]([O-])CC(F)(F)F)c(Cl)cc1Cl (stereo not drawn) [Compound 67]
logP[a]: 1.96
logP[b]: 1.96

Compound: O=[N+]([O-])c1cc(SSc2cc([N+](=O)[O-])c(Cl)cc2Cl)c(Cl)cc1Cl [XIX-6, 1,1′-Disulphanediylbis(2,4-dichloro-5-nitrobenzene)]
chromatographic logP [1]: 5.69
chromatographic logP [2]: 5.64

Compound: Cc1cc(F)c(-n2c(C)nc3c(cnn3C)c2=O)cc1SCC(F)(F)F [Compound 14, 5-{2-Fluoro-4-methyl-5-[(2,2,2-trifluoroethyl)sulphanyl]phenyl}-1,6-dimethyl-1,5-dihydro-4H-pyrazolo[3,4-d]pyrimidin-4-one]
chromatographic logP [3]: 2.84
chromatographic logP [4]: 2.84
chromatographic logP [5]: 2.79
chromatographic logP [6]: 2.79

Compound: O=c1c2scnc2ncn1-c1cc([S+]([O-])CC(F)(F)F)c(Cl)cc1Cl (stereo not drawn) [Compound 80]
logP[a]: 2.01
logP[b]: 1.98

Compound: N#Cc1ccc(-n2cnc3ccsc3c2=O)cc1SCC(F)(F)F [Compound 102]
logP[a]: 2.37
logP[b]: 2.31

Compound: Cc1cc(C)c([S+]([O-])CC(F)(F)F)cc1-n1c(C)nc2c(cnn2C)c1=O (racemic) [Compound 10]
logP[a]: 1.86
logP[b]: 1.84

Compound: Cc1cc(F)c(Br)cc1SCC(F)(F)F [VIIa-1, 1-Bromo-2-fluoro-4-methyl-5-[(2,2,2-trifluoroethyl)sulphanyl]benzene]
chromatographic logP [3]: 4.3
chromatographic logP [6]: 4.34

Compound: Cc1cc(F)c(-n2c(C(F)(F)F)nc3scnc3c2=O)cc1SCC(F)(F)F [Compound 65]
logP[a]: 3.55
logP[b]: 3.51

Compound: Cc1cc(F)c(N)cc1[S+]([O-])CC(F)(F)F (stereo not drawn) [IVb-1, 2-Fluoro-4-methyl-5-[(2,2,2-trifluoroethyl)sulphinyl]aniline]
chromatographic logP [3]: 1.77
chromatographic logP [6]: 1.72

Compound: Cc1cc(C)c([S+]([O-])CC(F)(F)F)cc1-n1c(C)nc2c(ncn2C)c1=O (racemic) [Compound 59]
logP[a]: 1.52
logP[b]: 1.50

Compound: FC(F)(F)CSc1cc(Br)ccc1C(F)(F)F [VIIa-10, 4-Bromo-2-[(2,2,2-trifluoroethyl)sulphanyl]-1-(trifluoromethyl)benzene]
chromatographic logP [3]: 4.22
chromatographic logP [6]: 4.2

Compound: Cc1c2c(=O)n(-c3ccc(C#N)c(SCC(F)(F)F)c3)cnc2nn1C [Compound 50]
logP[a]: 1.99
logP[b]: 1.92

Compound: Cc1cc(F)c(-n2cnc3ccsc3c2=O)cc1SCC(F)(F)F [Compound 109]
logP[a]: 3.50
logP[b]: 3.42

Compound: Cc1ccc(Br)cc1SCC(F)(F)F [VIIa-7, 5-Bromo-2-methylphenyl-2,2,2-trifluoroethyl sulphide]
chromatographic logP [3]: 4.29
chromatographic logP [6]: 4.26

Compound: O=c1c2sccc2ncn1-c1ccc(Cl)c(SCC(F)(F)F)c1 [Compound 103]
logP[a]: 2.90
logP[b]: 2.84

Compound: Cc1cc(F)c(-n2c(C(F)(F)F)nc3c(cnn3C)c2=O)cc1[S+]([O-])CC(F)(F)F (stereo not drawn) [Compound 16, 5-{2-Fluoro-4-methyl-5-[(2,2,2-trifluoroethyl)sulphinyl]phenyl}-1-methyl-6-(trifluoromethyl)-1,5-dihydro-4H-pyrazolo[3,4-d]pyrimidin-4-one]
log P[a] (acidic range, pH 2.7, 0.1% aqueous formic acid / acetonitrile): 2.74
log P[b] (neutral range, pH 7.8, 0.001 molar aqueous ammonium bicarbonate / acetonitrile): 2.70
chromatographic logP [3]: 2.67
chromatographic logP [4]: 2.67
chromatographic logP [5]: 2.63
chromatographic logP [6]: 2.63

Compound: O=[N+]([O-])c1ccc(Cl)c(SSc2cc([N+](=O)[O-])ccc2Cl)c1 [XIX-3, 1,1′-Disulphanediylbis(2-chloro-5-nitrobenzene)]
chromatographic logP [1]: 5.03
chromatographic logP [2]: 5.01

Compound: Cc1ccc(Br)cc1SSc1cc(Br)ccc1C
chromatographic logP [3]: > 7.36
chromatographic logP [6]: > 7.36

Compound: Nc1cc(SCC(F)(F)F)ccc1F [IVa-5, 2-Fluoro-5-[(2,2,2-trifluoroethyl)sulphanyl]aniline]
chromatographic logP [3]: 2.57
chromatographic logP [6]: 2.53

Compound: Cc1cc(F)c(N)cc1S [XVI-1, 5-Amino-4-fluoro-2-methylbenzenethiol]
chromatographic logP [3]: 3.7

Compound: Cc1ccc(-n2cnc3c(c(C)nn3C)c2=O)cc1SCC(F)(F)F [Compound 30]
logP[a]: 2.81
logP[b]: 2.73

Compound: O=C(Nc1ccc(Cl)c(SCC(F)(F)F)c1)C(F)(F)F [Compound X-3, N-{4-Chloro-3-[(2,2,2-trifluoroethyl)sulphanyl]phenyl}-2,2,2-trifluoroacetamide]
chromatographic logP [3]: 3.46
chromatographic logP [6]: 3.41

Compound: Cc1cc(C)c(-n2cnc3c(ncn3C)c2=O)cc1SCC(F)(F)F [Compound 55]
logP[a]: 2.28
logP[b]: 2.23

Compound: Cc1ccc(-n2cnc3nn(C)c(C)c3c2=O)cc1SCC(F)(F)F [Compound 44]
logP[a]: 2.38
logP[b]: 2.33

Compound: O=C(Nc1cc(SCC(F)(F)F)c(Cl)cc1F)C(F)(F)F [Compound X-2, N-{4-Chloro-2-fluoro-5-[(2,2,2-trifluoroethyl)sulphanyl]phenyl}-2,2,2-trifluoroacetamide]
chromatographic logP [3]: 3.34
chromatographic logP [6]: 3.14

Compound: Cc1cc(C)c(-n2cnc3c(cnn3C)c2=O)cc1SCC(F)(F)F [Compound 7]
logP[a]: 2.79
logP[b]: 2.73

Compound: Cc1cc(C)c([S+]([O-])CC(F)(F)F)cc1-n1cnc2c(cnn2C)c1=O (racemic) [Compound 9]
logP[a]: 1.74
logP[b]: 1.74

Compound: Nc1cc(SSc2ccc(Cl)c(N)c2)ccc1Cl [XVIII-4, 3,3′-Disulphanediylbis(6-chloroaniline)]
chromatographic logP [3]: 3.84
chromatographic logP [6]: 3.83

Second part, the compound after the results:

logP[a]: 2.82
logP[b]: 2.75
Compound: Cn1ncc2c(=O)n(-c3ccc(C(F)(F)F)c(SCC(F)(F)F)c3)cnc21 [Compound 25]

logP[a]: 2.45
logP[b]: 2.36
Compound: Cc1c2c(=O)n(-c3ccc(Cl)c(SCC(F)(F)F)c3)cnc2nn1C [Compound 48]

chromatographic logP [3]: 3
chromatographic logP [6]: 2.95
Compound: Nc1cc(SCC(F)(F)F)ccc1Cl [IVa-4, 2-Chloro-5-[(2,2,2-trifluoroethyl)sulphanyl]aniline]

logP[a]: 2.67
logP[b]: 2.64
Compound: Cc1cc(C)c(-n2cnc3scnc3c2=O)cc1SCC(F)(F)F [Compound 62]

logP[a]: 1.65
logP[b]: 1.62
Compound: Cc1cc(C)c([S+]([O-])CC(F)(F)F)cc1-n1cnc2ncsc2c1=O (stereo not drawn) [Compound 81]

logP[a]: 2.75
logP[b]: 2.71
Compound: COc1ccc(-n2cnc3sccc3c2=O)cc1SCC(F)(F)F [Compound 84]

logP[a]: 2.94
logP[b]: 2.94
Compound: Cn1ncc2c(=O)n(-c3cc(SCC(F)(F)F)c(Cl)cc3Cl)cnc21 [Compound 3]

logP[a]: 2.58
logP[b]: 2.53
Compound: Cn1ncc2c(=O)n(-c3ccc(Cl)c(SCC(F)(F)F)c3)cnc21 [Compound 23]

logP[a]: 3.56
logP[b]: 3.41
Compound: Cc1cc(F)c(-n2cnc3c(Cl)csc3c2=O)cc1SCC(F)(F)F [Compound 110]

logP[a]: 3.31
logP[b]: 3.21
Compound: Cc1cc(F)c(-n2cnc3c(cnn3CC(F)(F)F)c2=O)cc1SCC(F)(F)F [Compound 17]

chromatographic logP [3]: 2.4
Compound: Cc1ccc(NC(=O)C(F)(F)F)c(F)c1 [XIII-1, 2,2,2-Trifluoro-N-(2-fluoro-4-methylphenyl)acetamide]

logP[a]: 3.09
logP[b]: 3.07
Compound: O=c1c2sccc2ncn1-c1ccc(C(F)(F)F)c(SCC(F)(F)F)c1 [Compound 104]
